Results as given in PubChem BioAssay AID686961 (Sanford-Burnham Center for Chemical Genomics, 2013).
The source made the active and inactive calls.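 How the source made its calls: active means IC50 at or below 20 µM; inactive means the rest.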

What follows are compounds tested against Dual specificity protein phosphatase 3 (Homo sapiens) (UniProt P51452) (assay: VHR-1 phosphatase inhibitors, dose response, selectivity assay for LMPTP inhibitor project, biochemical, fluorescence, OMFP substrate (AID 686961)). Conditions: recombinant VHR-1 enzyme, OMFP fluorogenic substrate, 50 min.
Chain of Dual specificity protein phosphatase 3 (Homo sapiens) (P51452 whole entry, looked up): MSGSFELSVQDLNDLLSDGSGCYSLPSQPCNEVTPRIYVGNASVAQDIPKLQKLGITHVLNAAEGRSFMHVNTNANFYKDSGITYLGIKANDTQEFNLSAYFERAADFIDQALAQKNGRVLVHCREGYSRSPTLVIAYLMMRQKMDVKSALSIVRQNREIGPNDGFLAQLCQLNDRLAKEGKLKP
Work on `CCOc1cc(/C=N/N=C2/NC(=O)C(CC(=O)O)S2)ccc1OCc1ccc(Cl)cc1Cl` (stereo unspecified) yielded an IC50 of 3.31 µM. With `N=c1c(C(=O)NCc2ccc3c(c2)OCO3)cc2c(=O)n3ccccc3nc2n1Cc1cccnc1` the IC50 was 12.4 µM. Compound `CCN(c1ccccc1)S(=O)(=O)c1cc(C(=O)O)ccc1C` has an IC50 of 2.05 µM. With `CC1C(=O)N(Cc2cn(Cc3ccco3)nn2)CCS(=O)(=O)N1Cc1ccc(-c2cccnc2)cc1` (stereo unspecified) the IC50 was 0.91 µM. In the case of `CCOC(=O)Cn1c(=NC(=O)c2sc3ccccc3c2Cl)sc2cc(S(N)(=O)=O)ccc21`, the IC50 is reported as 0.4 µM. For `CCCCC(=O)Nc1ccc(C(=O)NNC(=O)c2ccc(C)c(Br)c2)cc1`, the IC50 was 3.82 µM. Compound `O=C(CCN1C(=O)/C(=C/c2ccc3c(c2)OCO3)SC1=S)Nc1ccc(C(=O)O)cc1` has an IC50 of 13 µM. With `Cc1cc(N2CCN(S(=O)(=O)c3ccc(Cl)c(Cl)c3)CC2)c2ccccc2n1` the IC50 was “inactive”. `CCOC(=O)C1=C(C)N=c2sc(=Cc3ccc(OCC(=O)O)cc3)c(=O)n2C1c1ccc(SC)cc1` (stereo unspecified) gave an IC50 of 1.83 µM. In the case of `COc1cccc(CNc2nc(NCC3CC3)nc3ccsc23)c1OC`, the IC50 is reported as 14.3 µM. `CCOC(=O)C1=C(C)N=c2sc(=Cc3ccc(OCC(=O)O)cc3)c(=O)n2C1c1ccc(Cl)cc1` (stereo unspecified) gave an IC50 of 2.63 µM. `O=C(Nc1ccc2oc(-c3ccccc3F)nc2c1)c1ccc([N+](=O)[O-])o1` gave an IC50 of 1.59 µM. For `COc1ccccc1CNc1nc(NCc2cnc(C)cn2)c2sccc2n1`, the IC50 was “inactive”. Compound `COc1ccc(Nc2nc(NCc3cccs3)nc3ccsc23)cc1OC` has an IC50 of 12.4 µM. `c1ccc(-c2nc(NCCCN3CCOCC3)c3ccccc3n2)cc1` was tested, and the IC50 was > 80 µM (inactive). With `CNc1nc(NC)c2cn[nH]c2n1` the IC50 was > 80 µM (inactive). `NS(=O)(=O)c1ccc(CCNC(=O)c2ccc3nccnc3c2)cc1` was tested, and the IC50 was “inactive”. In the case of `Cc1ccc(-c2nc(NCCN3CCOCC3)c3ccccc3n2)cc1`, the IC50 is reported as > 80 µM (inactive). In the case of `c1ccc(-c2nc(NCCCn3ccnc3)c3ccccc3n2)cc1`, the IC50 is reported as > 80 µM (inactive). `NC(=O)Cc1ccc(C(=O)CSc2nnc(-c3ccncc3)n2C2CC2)s1` showed an IC50 of 1.49 µM. Compound `O=C(N/N=C/c1ccc(OC(=O)c2cccs2)cc1)c1cccc(F)c1` has an IC50 of 5.57 µM. With `Cc1nc(N)nc(N)c1-c1ccc([N+](=O)[O-])cc1` the IC50 was > 80 µM (inactive). `Fc1ccccc1-c1nc(NC2CCCC2)c2ccccc2n1` was tested, and the IC50 was “inactive”. `Cc1[nH]ccc(=O)c1Cc1c(Cl)cccc1Cl` was tested, and the IC50 was > 80 µM (inactive). In the case of `CCc1nc(N)nc(N)c1-c1ccc(Cl)cc1`, the IC50 is reported as > 80 µM (inactive). With `O=c1cc(-c2cc3ccccc3o2)c2cc(O)ccc2o1` the IC50 was 5.57 µM. With `Cc1ccccc1Nc1cc(C)c2c(O)cccc2n1` the IC50 was > 80 µM (inactive). `Cc1c(CCC(=O)O)c(=O)oc2c(C)c3occ(-c4ccc(Cl)cc4)c3cc12` showed an IC50 of 5.41 µM. `Cc1ccc(-c2nc(NC(=O)CSc3cc(C)c4ccccc4n3)ns2)cc1` gave an IC50 of 1.27 µM. `c1ccc(-c2cc(NCCN3CCCCC3)c3ccccc3n2)cc1` was tested, and the IC50 was 12.5 µM. `O=C(/C=C/c1ccc(Br)cc1)NC(=O)c1ccccc1O` was tested, and the IC50 was 10.5 µM. `O=C(N/N=C/c1ccc(Br)s1)c1cccc([N+](=O)[O-])c1` was tested, and the IC50 was 1.97 µM. `c1ccc(-c2cc(N3CCCCC3)c3ccccc3n2)cc1` was tested, and the IC50 was > 80 µM (inactive). With `CN(C)c1nc(N)nc(/C(C#N)=C/C2CC3C=CC2C3)n1` (stereo unspecified) the IC50 was > 80 µM (inactive). For `Cc1cc2oc(=O)cc(-c3cc4ccccc4o3)c2cc1O`, the IC50 was 2.9 µM. In the case of `O=C1C(=Cc2cn(-c3ccccc3)nc2-c2ccc(OCc3ccccc3)cc2)SC(=S)N1CCS(=O)(=O)O`, the IC50 is reported as 0.55 µM. `Cc1[nH]ccc2cc3nc4ccccc4c3cc12` was tested, and the IC50 was 17.6 µM. With `CN1/C(=C/C=C/c2n(C)c3cc([N+](=O)[O-])c([N+](=O)[O-])cc3[n+]2C)C(C)(C)c2ccccc21` the IC50 was “inactive”. Compound `O=C(COc1ccc(/C=N/NC(=O)c2ccc(O)cc2)cc1)Nc1cccc([N+](=O)[O-])c1` has an IC50 of 5.71 µM. Compound `O=C(CCCOc1ccc(Cl)cc1Cl)NNC(=O)c1ccc(NC(=O)c2ccccc2)cc1` has an IC50 of 0.7 µM. Compound `COc1ccc(Nc2nc(=O)c3cc([N+](=O)[O-])ccc3s2)cc1` has an IC50 of 3.92 µM. With `COCCNc1nc(NCc2cccc(OC)c2OC)c2sccc2n1` the IC50 was “inactive”. In the case of `Cc1cccc(-c2nc(NCCCN3CCOCC3)c3ccccc3n2)c1`, the IC50 is reported as > 80 µM (inactive). With `CC(C)OCCCNc1nc(-c2ccccc2)nc2ccccc12` the IC50 was “inactive”. `Fc1ccccc1-c1nc(NCCCN2CCOCC2)c2ccccc2n1` was tested, and the IC50 was > 80 µM (inactive). In the case of `O=C(OCCNc1nc(-c2ccccc2)nc2ccccc12)c1cccnc1`, the IC50 is reported as > 80 µM (inactive). In the case of `Cc1c(CCC(=O)O)c(=O)oc2c(C)c(OCc3ccccc3Cl)ccc12`, the IC50 is reported as “inactive”. Work on `C/C(=N\NC(=O)c1ccc(OC2OCCOC2Oc2ccc(C(=O)N/N=C(\C)c3ccncc3)cc2)cc1)c1ccncc1` (stereo unspecified) yielded an IC50 of 6.01 µM. `c1ccc(-c2nc(NCc3cccnc3)c3ccccc3n2)cc1` was tested, and the IC50 was > 80 µM (inactive). With `Cc1cccc2nc(-c3ccccc3)nc(N[C@@H](CO)c3ccccc3)c12` the IC50 was > 80 µM (inactive). `O=C(NNC(=O)c1cc2cc3ccccc3nc2s1)c1cccc(Cl)c1` was tested, and the IC50 was 2.01 µM. `CCc1nc(N)nc(N)c1-c1ccc(Cl)c(N=[N+]=[N-])c1` was tested, and the IC50 was “inactive”. For `Clc1cccc(Cl)c1Cn1cnc(=NCc2ccco2)c2[nH]cnc21`, the IC50 was “inactive”. With `O=C(/C=C/c1ccccc1Cl)Nc1ccc2c(c1)C(=O)NC2=O` the IC50 was 2.29 µM. In the case of `CC(C)Oc1ccc(-c2nc(NCC3CCCO3)c3ccccc3n2)cc1` (stereo unspecified), the IC50 is reported as “inactive”. For `COc1ccc(-c2ccc(/C=N/NC(=O)c3cccnc3)o2)c([N+](=O)[O-])c1`, the IC50 was 9.62 µM. Work on `COc1ccccc1CNc1nc(NCc2ccc(NC(C)=O)cc2)c2sccc2n1` yielded an IC50 of 5.64 µM. Work on `CC(=O)Nc1ccc(CNc2nc(NCc3cccs3)nc3ccsc23)cc1` yielded an IC50 of 9.27 µM. `CC(Nc1nc(N2CCNCC2)nc2ccccc12)c1ccccc1` (stereo unspecified) showed an IC50 of 1.38 µM. Work on `O=C(N/N=C\C=C\c1ccc(Br)cc1)c1ccc2c(c1)OCO2` yielded an IC50 of 1.63 µM. `Nc1nc(N)c(Cc2ccc(Cl)cc2Cl)c(N)n1` was tested, and the IC50 was “inactive”. In the case of `O=C(N/N=C/c1cccc(Br)c1)c1ccc(Br)cc1`, the IC50 is reported as 11.1 µM. `CC(=O)Nc1ccc(S(=O)(=O)N2CCN(c3nc(NC4CCCC4)c4ccccc4n3)CC2)cc1` was tested, and the IC50 was 12.1 µM. Compound `CCc1nc(N)nc(N)c1-c1ccc(NCCN)c([N+](=O)[O-])c1` has an IC50 of 10.8 µM. With `Cc1ccc(-c2nc(NCc3cccnc3)c3ccccc3n2)cc1` the IC50 was “inactive”. In the case of `CCOC(=O)c1cc(-c2ccc(N3CCOCC3)cc2)nn1-c1ccccc1C(=O)O`, the IC50 is reported as 5.89 µM. In the case of `COc1cccc2c1[C@@H]1CN(CCCCn3c(=O)[nH]c4c(sc5ncc(-c6ccccc6)nc54)c3=O)C[C@@H]1CO2`, the IC50 is reported as 2.41 µM. With `O=C(OCCNc1nc(-c2ccccc2)nc2ccccc12)c1ccncc1` the IC50 was > 80 µM (inactive). `NS(=O)(=O)c1ccc(CNC(=O)Cc2cccs2)cc1` was tested, and the IC50 was 1.4 µM. `Cc1cc(N2CCC(C)CC2)nc2cccc(O)c12` gave an IC50 of 19.5 µM. In the case of `COc1cccc(N2CCN(C(=O)c3ccc(CSc4nc5ccncc5[nH]4)cc3)CC2)c1`, the IC50 is reported as 12.4 µM.
